Measurements as given in the supplement of paper PMC10307832.

What follows are cell lines tested with CC1=C(N=C(N=C1N)[C@H](CC(=O)N)NC[C@@H](C(=O)N)N)C(=O)N[C@@H]([C@H](C2=CN=CN2)OC3C(C(C(C(O3)CO)O)O)OC4C(C(C(C(O4)CO)O)OC(=O)N)O)C(=O)N[C@H](C)[C@H]([C@H](C)C(=O)N[C@@H]([C@@H](C)O)C(=O)NCCC5=NC(=CS5)C6=NC(=CS6)C(=O)NCCC[S+](C)C)O [Bleomycin] + Nc1ncn([C@H]2C[C@H](O)[C@@H](CO)O2)c(=O)n1 [Decitabine] (partner 2 µM) (assay: relative viability (nuclei count vs DMSO), 5 days (fraction); higher = more cells survive). Conditions: first compound 0.01 µM; main component drawn.
Method in brief: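 Relative viability equals treated-well nuclei counts divided by vehicle-well nuclei counts. Counts came from 4× images of lung cancer cell lines grown in 1536-well plates for 5 days after pin-tool dosing on the day after seeding. Dosing used one drug alone or a fixed anchor-drug dose plus five library-drug doses (not always all listed) in √10 steps, and values are medians of duplicate plates.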

Row | Cell Line | relative viability
1 | COR-L23 | 0.378
2 | COR-L 105 | 0.594
3 | LOU-NH91 | 0.624
4 | ChaGo-K-1 | 0.492
5 | NCI-H3122 | 0.441
6 | HOP-62 | 0.157
7 | HCC-44 | 0.773
8 | LU99A | 0.77
9 | BEN | 0.719
10 | HARA | 0.513
11 | HCC-78 | 0.624
12 | NCI-H441 | 0.233
13 | LCLC-97TM1 | 0.2
14 | NCI-H2009 | 0.39
15 | A-427 | 0.429
16 | NCI-H460 | 0.301
17 | NCI-H727 | 0.938
18 | NCI-H1734 | 0.453
19 | NCI-H520 | 0.501
20 | NCI-H2405 | 0.648
21 | SW 1573 | 0.368
22 | 201T | 0.839
23 | NCI-H1915 | 0.259
24 | HCC-827 | 0.304
25 | LXF-289 | 0.381
26 | NCI-H2347 | 0.572
27 | NCI-H650 | 0.305
28 | NCI-H1651 | 0.619
29 | EPLC-272H | 0.358

Same assay, conditions: first compound 0.03162 µM; main component drawn

Row | Cell Line | relative viability
30 | COR-L23 | 0.407
31 | COR-L 105 | 0.588
32 | LOU-NH91 | 0.611
33 | ChaGo-K-1 | 0.506
34 | NCI-H3122 | 0.49
35 | HOP-62 | 0.197
36 | HCC-44 | 0.795
37 | LU99A | 0.809
38 | BEN | 0.745
39 | HARA | 0.534
40 | HCC-78 | 0.702
41 | NCI-H441 | 0.238
42 | LCLC-97TM1 | 0.156
43 | NCI-H2009 | 0.392
44 | A-427 | 0.495
45 | NCI-H460 | 0.228
46 | NCI-H727 | 0.686
47 | NCI-H1734 | 0.477
48 | NCI-H520 | 0.54
49 | NCI-H2405 | 0.655
50 | SW 1573 | 0.442
51 | 201T | 0.816
52 | NCI-H1915 | 0.237
53 | LXF-289 | 0.407
54 | NCI-H2347 | 0.635
55 | NCI-H650 | 0.318
56 | NCI-H1651 | 0.461
57 | EPLC-272H | 0.343

Same assay, conditions: first compound 0.1 µM; main component drawn

Row | Cell Line | relative viability
58 | COR-L23 | 0.287
59 | COR-L 105 | 0.519
60 | LOU-NH91 | 0.472
61 | ChaGo-K-1 | 0.476
62 | NCI-H3122 | 0.358
63 | HOP-62 | 0.137
64 | HCC-44 | 0.693
65 | LU99A | 0.64
66 | BEN | 0.685
67 | HARA | 0.473
68 | HCC-78 | 0.639
69 | NCI-H441 | 0.221
70 | LCLC-97TM1 | 0.168
71 | NCI-H2009 | 0.353
72 | A-427 | 0.406
73 | NCI-H460 | 0.279
74 | NCI-H727 | 0.893
75 | NCI-H1734 | 0.414
76 | NCI-H520 | 0.456
77 | NCI-H2405 | 0.61
78 | SW 1573 | 0.311
79 | 201T | 0.677
80 | NCI-H1915 | 0.238
81 | HCC-827 | 0.287
82 | LXF-289 | 0.406
83 | NCI-H2347 | 0.543
84 | NCI-H650 | 0.299
85 | NCI-H1651 | 0.477
86 | EPLC-272H | 0.301

Same assay, conditions: first compound 0.3162 µM; main component drawn

Row | Cell Line | relative viability
87 | COR-L23 | 0.188
88 | COR-L 105 | 0.419
89 | LOU-NH91 | 0.38
90 | ChaGo-K-1 | 0.433
91 | NCI-H3122 | 0.324
92 | HOP-62 | 0.154
93 | HCC-44 | 0.396
94 | LU99A | 0.448
95 | BEN | 0.607
96 | HARA | 0.313
97 | HCC-78 | 0.645
98 | NCI-H441 | 0.217
99 | LCLC-97TM1 | 0.158
100 | NCI-H2009 | 0.293
101 | A-427 | 0.29
102 | NCI-H460 | 0.0468
103 | NCI-H727 | 0.459
104 | NCI-H1734 | 0.272
105 | NCI-H520 | 0.424
106 | NCI-H2405 | 0.433
107 | SW 1573 | 0.19
108 | 201T | 0.735
109 | NCI-H1915 | 0.193
110 | HCC-827 | 0.249
111 | LXF-289 | 0.24
112 | NCI-H2347 | 0.514
113 | NCI-H650 | 0.2
114 | NCI-H1651 | 0.333
115 | EPLC-272H | 0.171

Same assay, conditions: first compound 1 µM; main component drawn

Row | Cell Line | relative viability
116 | COR-L23 | 0.147
117 | COR-L 105 | 0.371
118 | LOU-NH91 | 0.406
119 | ChaGo-K-1 | 0.364
120 | NCI-H3122 | 0.26
121 | HOP-62 | 0.118
122 | HCC-44 | 0.407
123 | LU99A | 0.211
124 | BEN | 0.542
125 | HARA | 0.335
126 | HCC-78 | 0.423
127 | NCI-H441 | 0.224
128 | LCLC-97TM1 | 0.0988
129 | NCI-H2009 | 0.271
130 | A-427 | 0.266
131 | NCI-H460 | 0.0408
132 | NCI-H727 | 0.776
133 | NCI-H1734 | 0.2
134 | NCI-H520 | 0.416
135 | NCI-H2405 | 0.309
136 | SW 1573 | 0.197
137 | 201T | 0.561
138 | NCI-H1915 | 0.141
139 | HCC-827 | 0.198
140 | LXF-289 | 0.161
141 | NCI-H2347 | 0.488
142 | NCI-H650 | 0.175
143 | NCI-H1651 | 0.192
144 | EPLC-272H | 0.129
